Data: PMC10776900, “Identification of structural motifs critical for human G6PC2 function informed by sequence analysis and an AlphaFold2-predicted model” (Bioscience Reports, 2024)

Experiments:
human G6PC2 V219 variant [1] = target: T1, human G6PC2 V219 variant (Homo sapiens, UniProt Q9NQR9); assay: G6Pase activity of enzyme purified with versus without CHS; type: biochemical; conditions: CHS 0.05% in solubilisation, 0.02% in later buffers, LMNG micelles; putative CRAC motif
T1 construct: purified from HEK293S (BacMam) in LMNG micelles

human G6PC2 V219 variant [2] = target: T1, human G6PC2 V219 variant; assay: G6Pase activity with acute addition of cholesterol to purified enzyme; type: biochemical; conditions: purified without CHS, LMNG micelles; putative CRAC motif

With `CC(C)CCC[C@@H](C)[C@H]1CC[C@H]2[C@@H]3CC=C4C[C@@H](OC(=O)CCC(=O)O)CC[C@]4(C)[C@H]3CC[C@]12C` [cholesterol hemi-succinate] the “% reduction of Vmax” value (human G6PC2 V219 variant [1]) was ~ 90%.
`CC(C)CCC[C@@H](C)[C@H]1CC[C@H]2[C@@H]3CC=C4C[C@@H](O)CC[C@]4(C)[C@H]3CC[C@]12C` [cholesterol] was tested, and the “G6Pase activity with acute addition of cholesterol to purified enzyme” value (human G6PC2 V219 variant [2]) was “addition of cholesterol decreased the activity of the V219 but not the L219 variant”.
